Experimental data taken from ChEMBL document CHEMBL5625170, “Design, synthesis, and biological evaluation of novel penindolone derivatives as potential inhibitors of hemagglutinin-mediated membrane fusion” (Eur J Med Chem, 2023).

System: Influenza A virus
Assay: Anti-viral activity against Influenza A virus amantadine-resistant strain (A/Puerto Rico/8/34) infected in MDCK cells assessed as inhibition of virus cytopathic effect measured after 48 hrs by crystal violet staining based assay
Type: functional, organism-based
Details: A/Puerto Rico/8/34, MDCK

SMILES | IC50 [µM]
CC(=O)c1cc(C)c(O)c(Cc2[nH]c3ccccc3c2Cc2c(O)c(C)cc(C(C)=O)c2O)c1O | 25.5
CC(=O)c1cc(C)c(O)c(Cc2[nH]c3ccc(C)cc3c2Cc2c(O)c(C)cc(C(C)=O)c2O)c1O | 20.6
CC(=O)c1cc(C)c(O)c(Cc2[nH]c3ccc(-c4ccc5ncccc5c4)cc3c2Cc2c(O)c(C)cc(C(C)=O)c2O)c1O | 18.5
COc1cccc(OC)c1-c1ccc2[nH]c(Cc3c(O)c(C)cc(C(C)=O)c3O)c(Cc3c(O)c(C)cc(C(C)=O)c3O)c2c1 | 21
COc1cccc(OC)c1-c1ccc2c(Cc3c(O)c(C)cc(C(C)=O)c3O)c(Cc3c(O)c(C)cc(C(C)=O)c3O)[nH]c2c1 | 19.5
C=CCn1c(Cc2c(O)c(C)cc(C(C)=O)c2O)c(Cc2c(O)c(C)cc(C(C)=O)c2O)c2ccccc21 | > 30
CC(=O)c1cc(C)c(O)c(Cc2[nH]c3ccc(-c4cc(C(F)(F)F)cc(C(F)(F)F)c4)cc3c2Cc2c(O)c(C)cc(C(C)=O)c2O)c1O | > 30
CC(=O)c1cc(C)c(O)c(Cc2[nH]c3ccc(-c4cc(C)cc(C)c4)cc3c2Cc2c(O)c(C)cc(C(C)=O)c2O)c1O | 13.5
CC(=O)c1cc(C)c(O)c(Cc2[nH]c3cc(-c4ccc5c(c4)CCO5)ccc3c2Cc2c(O)c(C)cc(C(C)=O)c2O)c1O | > 30
COc1ccc2cc(-c3ccc4c(Cc5c(O)c(C)cc(C(C)=O)c5O)c(Cc5c(O)c(C)cc(C(C)=O)c5O)[nH]c4c3)ccc2c1 | 23.3
CC(=O)c1cc(C)c(O)c(Cc2c(Cc3c(O)c(C)cc(C(C)=O)c3O)n(Cc3ccc(Cl)cc3)c3ccccc23)c1O | > 30
CC(=O)c1cc(C)c(O)c(Cc2[nH]c3cc(-c4c5ccccc5c(-c5ccccc5)c5ccccc45)ccc3c2Cc2c(O)c(C)cc(C(C)=O)c2O)c1O | > 30
CC(=O)c1cc(C)c(O)c(Cc2[nH]c3cc(-c4cccc(F)c4)ccc3c2Cc2c(O)c(C)cc(C(C)=O)c2O)c1O | > 30
CC(=O)c1cc(C)c(O)c(Cc2[nH]c3ccc(-c4ccc(C)cc4)cc3c2Cc2c(O)c(C)cc(C(C)=O)c2O)c1O | 15.5
CC(=O)c1cc(C)c(O)c(Cc2[nH]c3cc(-c4cccc(O)c4)ccc3c2Cc2c(O)c(C)cc(C(C)=O)c2O)c1O | > 30
COc1cc(-c2ccc3c(Cc4c(O)c(C)cc(C(C)=O)c4O)c(Cc4c(O)c(C)cc(C(C)=O)c4O)[nH]c3c2)cc(OC)c1OC | 20.1
CC(=O)c1cc(C)c(O)c(Cc2[nH]c3ccc(-c4cccc(O)c4)cc3c2Cc2c(O)c(C)cc(C(C)=O)c2O)c1O | > 30
CC(=O)c1cc(C)c(O)c(Cc2[nH]c3cc(-c4ccc(Cl)cc4)ccc3c2Cc2c(O)c(C)cc(C(C)=O)c2O)c1O | > 30
CSc1ccc(-c2ccc3[nH]c(Cc4c(O)c(C)cc(C(C)=O)c4O)c(Cc4c(O)c(C)cc(C(C)=O)c4O)c3c2)cc1 | 17.5
CC(=O)c1cc(C)c(O)c(Cc2[nH]c3ccc(-c4ccccc4F)cc3c2Cc2c(O)c(C)cc(C(C)=O)c2O)c1O | > 30
COc1ccc(-c2ccc3c(Cc4c(O)c(C)cc(C(C)=O)c4O)c(Cc4c(O)c(C)cc(C(C)=O)c4O)[nH]c3c2)cc1OC | 19.7
CC(=O)c1cc(C)c(O)c(Cc2c(Cc3c(O)c(C)cc(C(C)=O)c3O)n(Cc3ccccc3)c3ccccc23)c1O | > 30
CC(=O)c1cc(C)c(O)c(Cc2[nH]c3cc(-c4cc(C(C)(C)C)cc(C(C)(C)C)c4)ccc3c2Cc2c(O)c(C)cc(C(C)=O)c2O)c1O | 26.8

SMILES | IC50 [µM]
CC(=O)c1cc(C)c(O)c(Cc2[nH]c3ccc(-c4c5ccccc5cc5ccccc45)cc3c2Cc2c(O)c(C)cc(C(C)=O)c2O)c1O | 6.7
CC(=O)c1cc(C)c(O)c(Cc2[nH]c3ccc(Br)cc3c2Cc2c(O)c(C)cc(C(C)=O)c2O)c1O | 25.2
CC(=O)c1cc(C)c(O)c(Cc2[nH]c3ccc(-c4c5ccccc5c(-c5ccccc5)c5ccccc45)cc3c2Cc2c(O)c(C)cc(C(C)=O)c2O)c1O | > 30
CC(=O)c1cc(C)c(O)c(Cc2[nH]c3cc(-c4ccccc4)ccc3c2Cc2c(O)c(C)cc(C(C)=O)c2O)c1O | 23.4
COc1ccc(Cn2c(Cc3c(O)c(C)cc(C(C)=O)c3O)c(Cc3c(O)c(C)cc(C(C)=O)c3O)c3ccccc32)cc1 | > 30
CC(=O)c1cc(C)c(O)c(Cc2[nH]c3cc(-c4ccc5ccccc5c4)ccc3c2Cc2c(O)c(C)cc(C(C)=O)c2O)c1O | 26
CC(=O)c1cc(C)c(O)c(Cc2[nH]c3ccc(-c4cc(C(C)(C)C)cc(C(C)(C)C)c4)cc3c2Cc2c(O)c(C)cc(C(C)=O)c2O)c1O | > 30
CC(=O)c1cc(C)c(O)c(Cc2[nH]c3cc(-c4ccc(C)cc4)ccc3c2Cc2c(O)c(C)cc(C(C)=O)c2O)c1O | 24.1
CC(=O)c1cc(C)c(O)c(Cc2[nH]c3cc(/C=C/c4ccccc4)ccc3c2Cc2c(O)c(C)cc(C(C)=O)c2O)c1O | > 30
CC(=O)c1cc(C)c(O)c(Cc2[nH]c3ccc(-c4ccc5ccccc5c4)cc3c2Cc2c(O)c(C)cc(C(C)=O)c2O)c1O | 20.7
CC(=O)c1cc(C)c(O)c(Cc2[nH]c3ccc(-c4ccc5c(c4)CCO5)cc3c2Cc2c(O)c(C)cc(C(C)=O)c2O)c1O | > 30
CC(=O)c1cc(C)c(O)c(Cc2[nH]c3cc(-c4ccc5cccnc5c4)ccc3c2Cc2c(O)c(C)cc(C(C)=O)c2O)c1O | > 30
CC(=O)c1cc(C)c(O)c(Cc2[nH]c3cc(-c4cc(C(F)(F)F)cc(C(F)(F)F)c4)ccc3c2Cc2c(O)c(C)cc(C(C)=O)c2O)c1O | > 30
COc1ccc(-c2ccc3[nH]c(Cc4c(O)c(C)cc(C(C)=O)c4O)c(Cc4c(O)c(C)cc(C(C)=O)c4O)c3c2)cc1 | 16.3
CC(=O)c1cc(C)c(O)c(Cc2[nH]c3cc(-c4ccsc4)ccc3c2Cc2c(O)c(C)cc(C(C)=O)c2O)c1O | > 30
COc1ccc2[nH]c(Cc3c(O)c(C)cc(C(C)=O)c3O)c(Cc3c(O)c(C)cc(C(C)=O)c3O)c2c1 | 15.9
CC(=O)c1cc(C)c(O)c(Cc2[nH]c3ccc(-c4ccc(C(F)(F)F)cc4)cc3c2Cc2c(O)c(C)cc(C(C)=O)c2O)c1O | 21.9
CC(=O)c1cc(C)c(O)c(Cc2c(Cc3c(O)c(C)cc(C(C)=O)c3O)n(N)c3ccccc23)c1O | > 30
CC(=O)c1cc(C)c(O)c(Cc2[nH]c3cc(-c4ccc(F)cc4)ccc3c2Cc2c(O)c(C)cc(C(C)=O)c2O)c1O | 20.6
CC(=O)c1cc(C)c(O)c(Cc2[nH]c3ccc(-c4csc5ccccc45)cc3c2Cc2c(O)c(C)cc(C(C)=O)c2O)c1O | 23.4
CC(=O)c1cc(C)c(O)c(Cc2[nH]c3cc(-c4c5ccccc5cc5ccccc45)ccc3c2Cc2c(O)c(C)cc(C(C)=O)c2O)c1O | 8.3
CSc1ccc(-c2ccc3c(Cc4c(O)c(C)cc(C(C)=O)c4O)c(Cc4c(O)c(C)cc(C(C)=O)c4O)[nH]c3c2)cc1 | 9.1
CC(=O)c1cc(C)c(O)c(Cc2[nH]c3cc(-c4ccc5c(c4)OCCO5)ccc3c2Cc2c(O)c(C)cc(C(C)=O)c2O)c1O | 9.1

SMILES | IC50 [µM]
CC(=O)c1cc(C)c(O)c(Cc2[nH]c3cc(-c4ccccc4F)ccc3c2Cc2c(O)c(C)cc(C(C)=O)c2O)c1O | > 30
COc1ccc2cc(-c3ccc4[nH]c(Cc5c(O)c(C)cc(C(C)=O)c5O)c(Cc5c(O)c(C)cc(C(C)=O)c5O)c4c3)ccc2c1 | 21.2
COc1ccc(-c2ccc3[nH]c(Cc4c(O)c(C)cc(C(C)=O)c4O)c(Cc4c(O)c(C)cc(C(C)=O)c4O)c3c2)cc1OC | 18.1
CC(=O)c1cc(C)c(O)c(Cc2[nH]c3ccc(Cl)cc3c2Cc2c(O)c(C)cc(C(C)=O)c2O)c1O | > 30
CC(=O)c1cc(C)c(O)c(Cc2[nH]c3ccc(-c4ccc(Cl)cc4)cc3c2Cc2c(O)c(C)cc(C(C)=O)c2O)c1O | 27
CC(=O)c1cc(C)c(O)c(Cc2[nH]c3cc(C)ccc3c2Cc2c(O)c(C)cc(C(C)=O)c2O)c1O | 15.1
CC(=O)c1cc(C)c(O)c(Cc2[nH]c3cc(-c4csc5ccccc45)ccc3c2Cc2c(O)c(C)cc(C(C)=O)c2O)c1O | 20.9
CC(=O)c1cc(C)c(O)c(Cc2[nH]c3ccc(-c4cccc(F)c4)cc3c2Cc2c(O)c(C)cc(C(C)=O)c2O)c1O | > 30
COc1ccc(-c2ccc3c(Cc4c(O)c(C)cc(C(C)=O)c4O)c(Cc4c(O)c(C)cc(C(C)=O)c4O)[nH]c3c2)cc1 | 8.7
COc1cc(-c2ccc3[nH]c(Cc4c(O)c(C)cc(C(C)=O)c4O)c(Cc4c(O)c(C)cc(C(C)=O)c4O)c3c2)cc(OC)c1OC | 8
CC(=O)c1cc(C)c(O)c(Cc2[nH]c3ccc(F)cc3c2Cc2c(O)c(C)cc(C(C)=O)c2O)c1O | > 30
CC(=O)c1cc(C)c(O)c(Cc2[nH]c3ccc(-c4ccc(F)cc4)cc3c2Cc2c(O)c(C)cc(C(C)=O)c2O)c1O | > 30
CC(=O)c1cc(C)c(O)c(Cc2[nH]c3ccc(-c4ccc5c(c4)OCCO5)cc3c2Cc2c(O)c(C)cc(C(C)=O)c2O)c1O | 13
CC(=O)c1cc(C)c(O)c(Cc2[nH]c3ccc(-c4ccsc4)cc3c2Cc2c(O)c(C)cc(C(C)=O)c2O)c1O | > 30
CC(=O)c1cc(C)c(O)c(Cc2[nH]c3ccc(/C=C/c4ccccc4)cc3c2Cc2c(O)c(C)cc(C(C)=O)c2O)c1O | > 30
CC(=O)c1cc(C)c(O)c(Cc2c(Cc3c(O)c(C)cc(C(C)=O)c3O)n(Cc3ccc(F)cc3)c3ccccc23)c1O | > 30
COc1ccc2c(Cc3c(O)c(C)cc(C(C)=O)c3O)c(Cc3c(O)c(C)cc(C(C)=O)c3O)[nH]c2c1 | 12.6
CC(=O)c1cc(C)c(O)c(Cc2[nH]c3cc(-c4ccc(C(F)(F)F)cc4)ccc3c2Cc2c(O)c(C)cc(C(C)=O)c2O)c1O | 25
CC(=O)c1cc(C)c(O)c(Cc2[nH]c3ccc(-c4ccccc4)cc3c2Cc2c(O)c(C)cc(C(C)=O)c2O)c1O | 26
CC(=O)c1cc(C)c(O)c(Cc2[nH]c3cc(-c4cc(C)cc(C)c4)ccc3c2Cc2c(O)c(C)cc(C(C)=O)c2O)c1O | 10.1
CCOC(=O)C1=C[C@@H](OC(CC)CC)[C@H](NC(C)=O)[C@@H](N)C1 [OSELTAMIVIR] | 11.4
